Reference: publication PMC7445967, “The Potential of Atractylodin-Loaded PLGA Nanoparticles as Chemotherapeutic for Cholangiocarcinoma” (Asian Pacific Journal of Cancer Prevention : APJCP, 2020)
In brackets after ≈: the same amount, converted by molar mass. Read-outs that look alike come from different tables or passages of the source.

Legend:
[1] = system: CL-6 cholangiocarcinoma cell line; assay: MTT cytotoxicity assay, CL-6; conditions: for Cell viability: highest concentration (atractylodin 125 µg/mL, ALNPs-1 6,000 µg/mL), range
Description: (§1) Human cholangiocarcinoma (CCA) cell lines, CL-6 and HuCC-T1, and normal fibroblast cell line, OUMS-36T-1F, were used for cytotoxicity assay. CL-6 and HuCC-T1 cell lines were cultured in RPMI medium and OUMS-36T-1F cell line was cultured in DMEM medium. Both culture media were prepared as complete medium supplemented with 10% (v/v) FBS and 1% antibiotic-antimycotic solution (100 IU/mL). All cell cultures were maintained at 37°C under 5% CO2 atmosphere and 95% humidity ([…] 150i, Thermo scientific, MA, USA).
(§2) For cytotoxicity assay, the CCA and normal cell lines were exposed to various concentrations of ALNPs-1 (47-6,000 µg/mL, 100 µL each), blank NPs-1 (47-6,000 µg/mL, 100 µL each), atractylodin (1-125 µg/mL), 5-FU (positive control, 1-125 µg/mL), or serum-free medium (negative control) in a 96-well plate. Briefly, 8,000 cells (in 100 µL complete medium) were seeded into each well and pre-incubated at 37°C under 5% CO2 for 24 h. Viability of each cell following exposure to ALNPs-1, blank NPs-1, atractylodin, and 5-FU was determined by MTT assay at 24, 48, and 72 h of exposure (Chittasupho et al., 2017). Absorbance of cell suspension was measured at 550 nm using UV Absorbance Reader (Vario skan flash, Thermo Fisher scientific, MA, USA). Cell viability was calculated using the Equation (4):
(§3) Cell viability %=Absorbance of cell treated with sample/absorbance of negative control cells×100
(§4) IC50 (concentration that inhibits cell growth by 50%) of each compound in each cell line was determined using Graphpad Prism version 7.04 (GraphPad Software, CA, USA). Selectivity index (SI) was determined from the ratio of IC50 of ALNPs-1, atractylodin, or 5-FU in normal cell and CCA cell.

[2] = system: HuCC-T1 cholangiocarcinoma cell line; assay: MTT cytotoxicity assay, HuCC-T1; conditions: for Cell viability: highest concentration (atractylodin 125 µg/mL, ALNPs-1 6,000 µg/mL), range
Description: as §1, §2, §3, §4

[3] = system: OUMS-36T-1F normal fibroblast cell line; assay: MTT cytotoxicity assay, OUMS-36T-1F; conditions: for Cell viability: highest concentration (atractylodin 125 µg/mL, ALNPs-1 6,000 µg/mL), range
Description: as §1, §2, §3, §4

[4] = cited from earlier work
[5] = ratio of IC50 in normal cell (OUMS-36T-1F) and CL-6, 24 hours
[6] = ratio of IC50 in normal cell (OUMS-36T-1F) and CL-6, 48 hours
[7] = ratio of IC50 in normal cell (OUMS-36T-1F) and CL-6, 72 hours
[8] = ratio of IC50 in normal cell (OUMS-36T-1F) and HuCC-T1, 24 hours
[9] = ratio of IC50 in normal cell (OUMS-36T-1F) and HuCC-T1, 48 hours
[10] = ratio of IC50 in normal cell (OUMS-36T-1F) and HuCC-T1, 72 hours

O=c1[nH]cc(F)c(=O)[nH]1 [5-FU, 5-fluorouracil]
IC50 ([1]; Homo sapiens, 24 h): 77.4 µg/mL (≈ 595 µM)
IC50 ([1]; Homo sapiens, 48 h): 38.8 µg/mL (≈ 299 µM)
IC50 ([1]; Homo sapiens, 72 h): 3.46 µg/mL (≈ 26.6 µM)
Selectivity index (SI) [1, 5]: 1.71
Selectivity index (SI) [1, 6]: 1.28
Selectivity index (SI) [1, 7]: 8.90
IC50 ([2]; Homo sapiens, HuCCT-1, 24 h): 38.9 µg/mL (≈ 299 µM)
IC50 ([2]; Homo sapiens, HuCCT-1, 48 h): 25.9 µg/mL (≈ 199 µM)
IC50 ([2]; Homo sapiens, HuCCT-1, 72 h): 8.2 µg/mL (≈ 63 µM)
Selectivity index (SI) [2, 8]: 3.41
Selectivity index (SI) [2, 9]: 1.92
Selectivity index (SI) [2, 10]: 3.75
IC50 ([3]; Homo sapiens, Fibroblast, 24 h): 133 µg/mL (≈ 1020 µM)
IC50 ([3]; Homo sapiens, Fibroblast, 48 h): 49.8 µg/mL (≈ 383 µM)
IC50 ([3]; Homo sapiens, Fibroblast, 72 h): 30.8 µg/mL (≈ 237 µM)

C/C=C/C#CC#C/C=C/c1ccco1 [Atractylodin]
IC50 ([1]; CL-6, 24 h exposure, MTT): 56.36 µg/mL (≈ 309 µM)
Cell viability ([1]; CL-6, 24 hours): 24.38-33.56%
IC50 ([1]; CL-6, 48 h exposure, MTT): 37.66 µg/mL (≈ 207 µM)
Cell viability ([1]; CL-6, 48 hours): 9.71-13.89%
IC50 ([1]; CL-6, 72 h exposure, MTT): 52.02 µg/mL (≈ 285 µM)
Cell viability ([1]; CL-6, 72 hours): 9.12-10.27%
Selectivity index (SI) [1, 5]: 1.50
Selectivity index (SI) [1, 6]: 1.54
Selectivity index (SI) [1, 7]: 1.33
IC50 ([2]; HuCC-T1, 24 h exposure, MTT): 53.66 µg/mL (≈ 294 µM)
Cell viability ([2]; HuCC-T1, 24 hours): 23.72-30.39%
IC50 ([2]; HuCC-T1, 48 h exposure, MTT): 59.74 µg/mL (≈ 328 µM)
Cell viability ([2]; HuCC-T1, 48 hours): 16.18-17.18%
IC50 ([2]; HuCC-T1, 72 h exposure, MTT): 76.15 µg/mL (≈ 418 µM)
Cell viability ([2]; HuCC-T1, 72 hours): 16.43-20.57%
Selectivity index (SI) [2, 8]: 1.57
Selectivity index (SI) [2, 9]: 0.97
Selectivity index (SI) [2, 10]: 0.91
Concentrations producing cytotoxic effect against normal cells ([3]; OUMS-36-1F normal cells): 62.5 to 125 µg/mL
IC50 ([3]; OUMS-36T-1F, 24 h exposure, MTT): 84.33 µg/mL (≈ 463 µM)
Cell viability ([3]; OUMS-36T-1F, 24 hours): 39.61-41.50%
IC50 ([3]; OUMS-36T-1F, 48 h exposure, MTT): 58.16 µg/mL (≈ 319 µM)
Cell viability ([3]; OUMS-36T-1F, 48 hours): 14.88-15.37%
IC50 ([3]; OUMS-36T-1F, 72 h exposure, MTT): 69.03 µg/mL (≈ 379 µM)
Cell viability ([3]; OUMS-36T-1F, 72 hours): 6.61-7.92%
Solubility in water ([4]; free atractylodin, ref TGSC Information System, 2019): 7.541 mg/L (≈ 41.4 µM)
Solubility in water ([4]; soluble in organic solvents such as ethyl acetate, DMSO, acetone, ref ChemFaces, 2018): insoluble in water
